From ChEMBL document CHEMBL1158057, “Hydroxylated gedunin derivatives from Cedrela sinensis” (J Nat Prod, 2006)
In brackets after ≈: the same amount, converted by molar mass.

System: P388
Assay: Cytotoxicity against mouse P388 cells
Type: functional, cell-based

Row | Structure (SMILES) | IC50 [µg/mL]
1 | CC(=O)O[C@H]1C[C@@]2(C)[C@H](c3ccoc3)OC(=O)[C@H]3O[C@]32[C@@]2(C)[C@H]1[C@@]1(C)C=CC(=O)C(C)(C)[C@@H]1C[C@H]2OC(C)=O | 3.8 (≈ 7.03 µM)
2 | CC(=O)O[C@@H]1C[C@H]2C(C)(C)C(=O)C=C[C@]2(C)[C@H]2[C@@H](O)C[C@@]3(C)[C@H](c4ccoc4)OC(=O)[C@H]4O[C@]43[C@@]21C | 5.4 (≈ 10.8 µM)
3 | CC1(C)C(=O)C=C[C@]2(C)[C@H]3[C@@H](O)C[C@@]4(C)[C@H](c5ccoc5)OC(=O)[C@H]5O[C@]54[C@]3(C)[C@H](O)C[C@@H]12 | 7.8 (≈ 17.1 µM)
4 | CC(=O)O[C@@H]1C[C@H]2C(C)(C)C(=O)C=C[C@]2(C)[C@H]2[C@H](O)C[C@@]3(C)[C@H](c4ccoc4)OC(=O)[C@H]4O[C@]43[C@@]21C | 71 (≈ 142 µM)
5 | CC(=O)O[C@@H]1C[C@@]2(C)[C@H](c3ccoc3)OC(=O)[C@H]3O[C@]32[C@@]2(C)[C@H]1[C@@]1(C)C=CC(=O)C(C)(C)[C@@H]1C[C@H]2OC(C)=O | 63 (≈ 117 µM)
6 | CC1(C)C(=O)C=C[C@]2(C)[C@H]3[C@H](O)C[C@@]4(C)[C@H](c5ccoc5)OC(=O)[C@H]5O[C@]54[C@]3(C)[C@H](O)C[C@@H]12 | > 100
7 | CC(=O)O[C@@H]1C[C@H]2C(C)(C)C(=O)C=C[C@]2(C)[C@H]2C(=O)C[C@@]3(C)[C@H](c4ccoc4)OC(=O)[C@H]4O[C@]43[C@@]21C | 3 (≈ 6.04 µM)
8 | CC1(C)C(=O)C=C[C@]2(C)[C@H]3CC[C@@]4(C)[C@H](c5ccoc5)OC(=O)[C@H]5O[C@]54[C@]3(C)[C@H](O)C[C@@H]12 [DEACETYLGEDUNIN] | 4.5 (≈ 10.2 µM)
9 | CC(=O)O[C@@H]1C[C@H]2C(C)(C)C(=O)C=C[C@]2(C)[C@H]2CC[C@@]3(C)[C@H](c4ccoc4)OC(=O)[C@H]4O[C@]43[C@@]21C [GEDUNIN] | 3.3 (≈ 6.84 µM)
